Like-named read-outs stand apart in the source and are kept apart here.
Target: His6‐FraB (Salmonella FraB deglycase) (Salmonella enterica subsp. enterica serovar Typhimurium, UniProt Q8ZLD0)
Experiment: FraB-G6PD coupled assay, Michaelis–Menten analysis for K I and mode of inhibition
Type: biochemical
Details: for change of IC50 values with increasing [S]/K m: 'this trend' = IC50 does not vary with [S]/K m, change evident only from 0.2 to 1.6× [S]/K m; for slope in plots of 1/IC50 vs. v o/V max: Fig. S12; for K IU/K IC ratio: average (±SE), from 1/IC50 versus v o/V max plots; for mode of inhibition: kinetic analyses (Lineweaver‐Burk, α′ vs [I], IC50 vs [S]/K m, 1/IC50 vs v o/V max)
Description: To determine the K I of each inhibitor, 29 μL of master mix was added to two rows of a 384‐well Greiner plate, using a single‐channel pipette, and incubated at 20 °C for 20 min. A 12‐channel pipette was then used to transfer and mix 1 μL of varying [6‐P‐F‐Asp] to all 48 wells. The final reaction (30 μL) consisted of 25 mM HEPES pH 8.0 at 20 °C, 5 mM MgCl2, 0.1 mM EGTA, 0.5 mM NAD^+, 1 mU G6PD, 100 nM His6‐FraB, varying (6‐P‐F‐Asp) (between 8 and 12 concentrations), and varying [inhibitor] (between three and five concentrations) in 10% (v/v) DMSO. NADH fluorescence was monitored every 10 s for 10 min total on a SPARK® multi‐mode multiplate reader (Tecan), as described above, and plotted against time. Slopes of the linear range of each curve were converted to initial velocities, as described above, that were then plotted against [6‐P‐F‐Asp]. A hyperbolic curve was then fitted to the data to obtain the k cat and K m values according to the formula: v o = (V max × [S])/(K m + [S]).
To determine the correlation between the observed and expected initial velocities (Fig. S5A), these values were exported from Kaleidagraph, plotted against one another, and a curve was fit using the formula: y = mx + b. The differences between observed and expected initial velocities (residuals) were then depicted as box‐and‐whisker plots (Fig. S5B). Lineweaver‐Burk plots were generated by graphing 1/v o versus 1/[S] and curves were fit to the data with Kaleidagraph using the formula: 1/v o = (Km/V max).(1/[S]) + (1/V max). The k cat and K m parameters were then converted into α′ values by dividing the k cat of the control (no inhibitor) by either itself (α′= 1) or the k cat of test samples with variable [inhibitor]. Those α′ values were plotted against [inhibitor] and K I values were determined from the equation α = 1 + [I]/K I.
The initial velocities used to generate the Michaelis–Menten plots were also employed to obtain the IC50 vs [S]/K m plots. For a given [S], initial velocities were converted into relative activities and plotted versus [inhibitor]. […] The IC50 values determined from the IC50 vs [S]/K m plots were then used to plot 1/IC50 versus v o/V max. A curve was fit to the data using the formula: y = mx + b. The Y‐intercept of the 1/IC50 versus v o/V max plot is equal to 1/K IC, and the slope, for mixed inhibitors, is equal to 1/K IU – 1/K IC. […] Data analyses were performed as described above (see Tables S1–S7 for curve‐fit errors and goodness‐of‐fit values).

[1] = Trial 1, 6-P-F-Asp 7.38 µM, S/Km 0.175714, unit from Fig. S11 axis, read-out: IC50 (IC50 versus [S]/Km plots)
[2] = Trial 1, 6-P-F-Asp 15.7 µM, S/Km 0.37381, unit from Fig. S11 axis, read-out: IC50 (IC50 versus [S]/Km plots)
[3] = Trial 1, 6-P-F-Asp 31.3 µM, S/Km 0.745238, unit from Fig. S11 axis, read-out: IC50 (IC50 versus [S]/Km plots)
[4] = Trial 1, 6-P-F-Asp 62.5 µM, S/Km 1.488095, unit from Fig. S11 axis, read-out: IC50 (IC50 versus [S]/Km plots)
[5] = Trial 1, 6-P-F-Asp 125 µM, S/Km 2.97619, unit from Fig. S11 axis, read-out: IC50 (IC50 versus [S]/Km plots)
[6] = Trial 1, 6-P-F-Asp 250 µM, S/Km 5.952381, unit from Fig. S11 axis, read-out: IC50 (IC50 versus [S]/Km plots)
[7] = Trial 1, 6-P-F-Asp 500 µM, S/Km 11.90476, unit from Fig. S11 axis, read-out: IC50 (IC50 versus [S]/Km plots)
[8] = Trial 1, 6-P-F-Asp 750 µM, S/Km 17.85714, unit from Fig. S11 axis, read-out: IC50 (IC50 versus [S]/Km plots)
[9] = Trial 1, 6-P-F-Asp 1000 µM, S/Km 23.80952, unit from Fig. S11 axis, read-out: IC50 (IC50 versus [S]/Km plots)
[10] = Trial 1, 6-P-F-Asp 2000 µM, S/Km 47.61905, unit from Fig. S11 axis, read-out: IC50 (IC50 versus [S]/Km plots)
[11] = Trial 1, 6-P-F-Asp 3000 µM, S/Km 71.42857, unit from Fig. S11 axis, read-out: IC50 (IC50 versus [S]/Km plots)
[12] = Trial 2, 6-P-F-Asp 7.38 µM, S/Km 0.175714, unit from Fig. S11 axis, read-out: IC50 (IC50 versus [S]/Km plots)
[13] = Trial 2, 6-P-F-Asp 15.7 µM, S/Km 0.37381, unit from Fig. S11 axis, read-out: IC50 (IC50 versus [S]/Km plots)
[14] = Trial 2, 6-P-F-Asp 31.3 µM, S/Km 0.745238, unit from Fig. S11 axis, read-out: IC50 (IC50 versus [S]/Km plots)
[15] = Trial 2, 6-P-F-Asp 62.5 µM, S/Km 1.488095, unit from Fig. S11 axis, read-out: IC50 (IC50 versus [S]/Km plots)
[16] = Trial 2, 6-P-F-Asp 125 µM, S/Km 2.97619, unit from Fig. S11 axis, read-out: IC50 (IC50 versus [S]/Km plots)
[17] = Trial 2, 6-P-F-Asp 250 µM, S/Km 5.952381, unit from Fig. S11 axis, read-out: IC50 (IC50 versus [S]/Km plots)
[18] = Trial 2, 6-P-F-Asp 500 µM, S/Km 11.90476, unit from Fig. S11 axis, read-out: IC50 (IC50 versus [S]/Km plots)
[19] = Trial 2, 6-P-F-Asp 750 µM, S/Km 17.85714, unit from Fig. S11 axis, read-out: IC50 (IC50 versus [S]/Km plots)
[20] = Trial 2, 6-P-F-Asp 1000 µM, S/Km 23.80952, unit from Fig. S11 axis, read-out: IC50 (IC50 versus [S]/Km plots)
[21] = Trial 2, 6-P-F-Asp 2000 µM, S/Km 47.61905, unit from Fig. S11 axis, read-out: IC50 (IC50 versus [S]/Km plots)
[22] = Trial 2, 6-P-F-Asp 3000 µM, S/Km 71.42857, unit from Fig. S11 axis, read-out: IC50 (IC50 versus [S]/Km plots)
[23] = from Michaelis–Menten analysis of FraB at different inhibitor concentrations, average and standard error from two measurements, read-out: K I

Chain of His6‐FraB (Salmonella FraB deglycase) (Q8ZLD0 entry or part of it): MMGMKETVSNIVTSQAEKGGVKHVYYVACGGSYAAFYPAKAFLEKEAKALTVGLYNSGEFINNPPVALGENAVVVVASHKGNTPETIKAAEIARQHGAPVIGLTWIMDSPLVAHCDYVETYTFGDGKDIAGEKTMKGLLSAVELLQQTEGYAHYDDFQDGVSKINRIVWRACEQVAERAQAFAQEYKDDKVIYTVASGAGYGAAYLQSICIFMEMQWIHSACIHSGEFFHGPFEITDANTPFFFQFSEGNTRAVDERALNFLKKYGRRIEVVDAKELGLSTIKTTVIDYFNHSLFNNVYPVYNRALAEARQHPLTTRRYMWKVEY

| SMILES | change of IC50 values with increasing [S]/K m | slope in plots of 1/IC50 vs. v o/V max | IC50 [1] [µM] | IC50 [2] [µM] | IC50 [3] [µM] | IC50 [4] [µM] | IC50 [5] [µM] | IC50 [6] [µM] | IC50 [7] [µM] | IC50 [8] [µM] | IC50 [9] [µM] | IC50 [10] [µM] | IC50 [11] [µM] | IC50 [12] [µM] | IC50 [13] [µM] | IC50 [14] [µM] | IC50 [15] [µM] | IC50 [16] [µM] | IC50 [17] [µM] | IC50 [18] [µM] | further results |
| --- | --- | --- | --- | --- | --- | --- | --- | --- | --- | --- | --- | --- | --- | --- | --- | --- | --- | --- | --- | --- | --- |
| Cc1cccc(Cl)c1-n1sc(=O)n(CC2CC2)c1=O [1524:E12, 2‐(2‐chloro‐6‐methylphenyl)‐4‐(cyclopropylmethyl)‐1,2,4‐thiadiazolidine‐3,5‐dione] | exhibit this trend | no | 5.182 | 4.4596 | 6.2505 | 5.0417 | 4.4301 | 4.497 | 4.5819 | 4.2959 | 4.7019 | 4.852 | 5.5036 | 4.2249 | 5.1146 | 4.8438 | 5.1187 | 5.0178 | 5.2509 | 4.9663 | IC50 [19]: 4.9173 µM; IC50 [20]: 5.0782 µM; IC50 [21]: 5.2035 µM; IC50 [22]: 5.7824 µM; K IU/K IC ratio: 0.95 ± 0.05; Ki [23]: 4 µM; mode of inhibition: pure noncompetitive inhibitors; IC50, mean and standard deviation of all IC50 values in IC50 vs [S]/Km plot (trial shown in Fig. S11 panels M-X): 5 ± 0.4 µM; IC50, mean and standard deviation of all IC50 values in IC50 vs [S]/Km plot (trial shown in Fig. S11 panels Y-AJ): 5 ± 0.6 µM |
| O=c1[nH][nH]c(=S)n1Cc1ccccc1 [1533:K12, 4‐benzyl‐5‐sulfanylidene‐1,2,4‐triazolidin‐3‐one] | modest decrease | weakly positive | 26.2 | 24.1 | 18.5 | 18.3 | 18.1 | 19.6 | 18.7 | 20.1 | 16.7 | 18.6 | 21.2 | 24.9 | 24.7 | 26.5 | 25.9 | 24 | 23.8 | 21.8 | IC50 [19]: 20.5 µM; IC50 [20]: 21.1 µM; IC50 [21]: 20.8 µM; IC50 [22]: 20.7 µM; K IU/K IC ratio: 0.75 ± 0.05; Ki [23]: 12 ± 1 µM; Ki (independent trial shown in Fig. S11 panels A-L, read-out: KI from α′ vs [I] plot): 13 µM; mode of inhibition: mixed‐type uncompetitive; IC50 (single trial shown in Fig. 5, read-out: IC50, mean and standard deviation of all IC50 values in IC50 vs [S]/Km plot): 23 ± 2 µM; Ki (single trial shown in Fig. 5, read-out: KI from α′ vs [I] plot): 11 µM |
| O=c1sn(-c2ccccc2C(F)(F)F)c(=O)n1CC1CC1 [1524:G12, 4‐(cyclopropylmethyl)‐2‐[2‐(trifluoromethyl)phenyl]‐1,2,4‐thiadiazolidine‐3,5‐dione] | exhibit this trend | no | 1.08 | 1.39 | 1.54 | 1.44 | 1.55 | 1.47 | 1.59 | 1.51 | 1.36 | 1.44 | 1.65 | 1.91 | 1.49 | 1.54 | 1.64 | 1.36 | 1.27 | 1.41 | IC50 [19]: 1.42 µM; IC50 [20]: 1.44 µM; IC50 [21]: 1.37 µM; IC50 [22]: 1.66 µM; K IU/K IC ratio: 0.9 ± 0.1; Ki [23]: 1 µM; mode of inhibition: pure noncompetitive inhibitors |

From paper PMC12051030, “Identification of inhibitors of the Salmonella FraB deglycase, a drug target” (FEBS Open Bio, 2025)
